Patent publication US8596358B2, “Well treatment” (Statoil ASA, priority 2004, dated 2013)
In brackets after ≈: the same amount, converted by molar mass.

How the values were obtained:
fish = assay: Fish toxicity (LC50 fish); conditions: in vivo
Source text: (§1) Materials for use in the invention include organosilanes, for example organosilane hydrides, organosilane alkoxides and organosilane amines. Organosilane compounds have the advantage that they are typically oil-soluble and react with water. […] Organosilanes for use in the invention preferably have a biodegradability of at least 60%. Whilst not wishing to be bound by theory, it is believed that organosilane compounds react with water and hydrolyse. The resulting chemicals then react with siliceous surfaces in the formation (e.g. the surface of silica sand), coat any sand particles, bind them in place by the formation of bridges and restrict their movement. The advantage of bifunctional organosilanes is their ability to bind two particles together.

[1] = Biodegradability according to OECD 306; conditions: as tested according to OECD 306
Source text: as §1

daphnia = assay: Daphnia toxicity (EC50 daphnia); conditions: in vivo
Source text: as §1

algae = assay: Algae toxicity (IC50 algae); format: cell-based
Source text: as §1

SMILES | LC50 fish (fish) | biodegradability [1] | EC50 daphnia (daphnia) | IC50 algae (algae)
CCO[Si](CCCN)(OCC)OCC [DYNASYLAN AMEO, 3-amino-propyltriethoxysilane] | 934 µg/mL (≈ 4220 µM) | 67% |  | 
CCO[Si](CCCNCCC[Si](OCC)(OCC)OCC)(OCC)OCC [DYNASYLAN bis-AMEO] | > 200 µg/mL |  | > 200 µg/mL | 125 µg/mL (≈ 294 µM)
